Assay results: US7645802B2 (Biovail Laboratories International SRL., priority 2005, dated 2010)
Structures can show the parent of a compound that is named as a salt. Where two headings read alike, the source gives them in different places. Marks after values point to notes of the source that are not given here.

Tests used:
[1] = comparative forced degradation of bupropion HCl and HBr API salts, closed bottle, 40° C./75% RH; assay type: physicochemical
Experimental: These studies were performed in closed bottles in a stability chamber kept at about 40 degrees C. and about 75% relative humidity. At specified times, the material in the bottles was analyzed for the presence of degradation products and % potency (% assay).
The samples were exposed to the above conditions in a closed bottle for few days, and then subjected to HPLC analysis.
The amount of the main degradation products present after treatment were compared with those amounts that were present initially.
The samples were analyzed after 14 and 24 days (study-1) and 10 days (study II), in a quantitative manner by direct treatment of the whole content of the bottle as per the HPLC standard test method (P05.901.10).

[2] = forced degradation stability study of bupropion salts in vials, 40 degrees C./75% RH, HPLC assay and impurities; conditions: for order of stability (assay, % potency): salt plus excipients, 20 days, 40 degrees C./75% RH
rat = conditions: for NUMBER OF ANIMALS WITH SEIZURE ACTIVITY / DURATION OF INITIAL SEIZURE CORTEX mean ± s.e.m. / DURATION OF INITIAL SEIZURE HIPPOCAMPUS mean ± s.e.m.: 100 mg/kg i.p., long seizure activity; for NUMBER OF ANIMALS WITH SEIZURE ACTIVITY: 10 rats per group, HBr dose in HCl molar equivalent
[3] = forced degradation of bupropion HBr and HCl in the presence of excipients at 55° C., 55° C./100% RH, 100° C., 105° C. (incl. TGA at 100° C.); assay type: physicochemical; conditions: TGA experiment at 100° C.
Experimental: Further forced degradation studies were carried out at 55° C., at 55° C. and 100% relative humidity, at 100° C., and at 105° C. on both the HCl and HBr Bupropion salts in the presence of excipients. […] FIG. 53 is a graph showing the loss of each salt over time in a TGA experiment at 100° C.
Rj: Wistar (Han) rats = test: EEG trace monitoring and behavioural observations in conscious rats
Experimental: The effects of the two bupropion salt forms hydrochloride and hydrobromide on central nervous system activity after intraperitoneal administration were evaluated by means of EEG trace monitoring in conscious rats. The method which detects electroencephalographic activity in conscious rats follows that described by Dürmüller et al., (2000) Vigilance-Controlled Quantified EEG in Safety Pharmacology, Current Protocols in Pharmacology Unit 10.6. The study was conducted at Porsolt & Partners Pharmacology, Research Laboratory, Z. A. des Suhards—B.P. 9, 53940 Le Genest-Saint-Isle, France.
Substances: The formulation excipient used was physiological saline (Laboratoire Aguettant). […] All substances were stored in a dry, dark, controlled access area and maintained at a controlled ambient temperature of about 20±3° C. The vehicle solutions were stored at about +4° C. The substances were administered in a volume of 5 ml/kg body weight. The doses of bupropion hydrochloride are expressed in mg/kg of salt. […] The substances were dissolved in physiological saline and prepared freshly at each day of experimentation.
Test systems: The rats used were male Rj: Wistar (Han) rats, weighing from about 280 g to 324 g at the time of implantation. They were supplied by Elevage Janvier, 53940 Le Genest-Saint-Isle, France. […] Upon delivery to the laboratory, the animals were housed in groups of 5 animals maximum, in macrolon cages (44×28×19 cm) containing wood litter (Litalabo—SPPS, 95100 Argenteuil, France). The animals had free access to food (Code 113—SAFE, 89290 Augy, France) and tap water. The animal house was maintained under artificial lighting (12 hrs) from 7:00 to 19:00 in a controlled ambient temperature of about 21±3° C. and relative humidity maintained at from about 30% to about 80%. […] Except during the test sessions, the animals had free access to food (Code 113) and tap water. The animals were identified by marking the connector fixed on the animal's head with an indelible pen. Rats were sacrificed at the end of the experiments by lethal injection of pentobarbital (>100 mg/kg i.p.). Animals were not submitted to necropsy. There is no reason to expect that contaminants were present in the feed, water or bedding at levels capable of interfering with the results of the tests. No checks were performed for this particular study.
Electrode implantation procedure: Implantation surgery was carried out under aseptic conditions. Rats, anesthetized with sodium pentobarbital (60 mg/kg i.p., plus supplementary doses of from about 5 mg/kg to about 10 mg/kg to maintain anesthesia until surgery completion) were implanted with 2 surface EEG electrodes, comprised of miniature titanium screws, placed bilaterally over the frontal-parietal cortex and 2 depth electrodes, comprised of twisted platinium-iridium wires, placed stereotaxically into the hippocampus CA3 area (Paxinos and Watson coordinates interaural: AP+5.0 mm, L±2.5 mm, V+7.0 mm). An additional screw, placed over the right occipital cortex, served as ground electrode. The electrodes were connected to small plugs and the whole assembly was secured on the skull with dental acrylate.
Apparatus: For the EEG recording, the animals were placed in rectangular Plexiglas cubicles (30×10×25 cm) mounted on treadmills. Five recording units were run in parallel. A turning commutator was attached above the centre of each cubicle, about 30 cm above walking level. On one side, it was connected via an electrically shielded multicore cable to the animal and on the other side to the signal conditioning system (Coulbourn Model V75-01). The system filters were set for all channels to high pass 1 Hz and low pass 150 Hz, respectively. The amplification levels were kept at from 1000× to 10000×. The EEG signals were acquired and processed on a PC (DELL GX620-2800) installed with a 16 channel 200 kHz/12-bit AD acquisition card (NI PCI-6023E).

[4] = two batches of each API, 10 days
[5] = spiked with IPA/EtOH, closed vials, 32 days

## CC(NC(C)(C)C)C(=O)c1cccc(Cl)c1 (stereo not drawn) [Bupropion HCl, bupropion hydrochloride]
[1]; [4]
  assay value, HCl versus HBr: lower than that for the HBr salt

## CC(NC(C)(C)C)C(=O)c1cccc(Cl)c1.Cl (racemic) [bupropion hydrochloride, (±)-1-(3-chlorophenyl)-2-[(1,1-dimethylethyl)amino]-1-propanone hydrochloride]
[2]
  In IPA/EtOH, 3-CBZ: order of impurity content: maleate > HBr > HCl > Fumarate
  In IPA/EtOH, 852U77: order of impurity content: fumarate > HBr ≈HCl ≈maleate ≈tosylate
  In IPA/EtOH, Total imp.: order of impurity content: fumarate > maleate > HBr > HCl > tosylate
  In water, 3-CBZ: order of impurity content: HCl > HBr≈maleate≈fumarate
  In water, 852U77: order of impurity content: fumarate > HBr > maleate > HCl
  In water, Total imp.: order of impurity content: fumarate > HBr > HCl > tosylate > maleate
[2]; closed vials
  order of stability (assay, % potency): HBr>HCl≈tosylate>fumarate>maleate
rat
  NUMBER OF ANIMALS WITH SEIZURE ACTIVITY: 10
  DURATION OF INITIAL SEIZURE CORTEX mean ± s.e.m.: 33 ± 3
  DURATION OF INITIAL SEIZURE HIPPOCAMPUS mean ± s.e.m.: 25 ± 4
[3]
  disproportionation of the salt at elevated temperatures (TGA, loss of API): disproportionation of the HCl salt occurs with concomitant loss of gaseous HCl
Rj: Wistar (Han) rats; rat, in vivo, ip, 10 mg/kg
  BEHAVIOR Facial clonus: −
  BEHAVIOR Forelimb clonus: −
  BEHAVIOR Head twitches: −
  BEHAVIOR Hyperactivity Sterotypies: −
  BEHAVIOR Rearing: −
  BEHAVIOR Wholebody clonus: −
  EEG ANALYSIS Burst cx: −
  EEG ANALYSIS Burst hipp: −
  EEG ANALYSIS Complex spike cx: −
  EEG ANALYSIS Complex spike hipp: −
  EEG ANALYSIS High amplitude fast frequency cx: −
  EEG ANALYSIS High amplitude fast frequency hipp: −
  EEG ANALYSIS High frequency burst activity hipp: −
  EEG ANALYSIS Long seizure activity cx: −
  EEG ANALYSIS Long seizure activity hipp: −
  EEG ANALYSIS Post ictual activity cx: −
  EEG ANALYSIS Post ictual activity hipp: −
  EEG ANALYSIS Repetitive isolated spike cx: −
  EEG ANALYSIS Repetitive isolated spike hipp: −
  EEG ANALYSIS Sharp waves cx: −
  EEG ANALYSIS Sharp waves hipp: −
  EEG ANALYSIS Short seizure activity cx: −
  EEG ANALYSIS Short seizure activity hipp: −
  EEG ANALYSIS Spike-and-waves cx: −
  EEG ANALYSIS Spike-and-waves hipp: −
Rj: Wistar (Han) rats; rat, in vivo, ip, 30 mg/kg
  BEHAVIOR Facial clonus: −
  BEHAVIOR Forelimb clonus: −
  BEHAVIOR Head twitches: −
  BEHAVIOR Hyperactivity Sterotypies: +
  BEHAVIOR Rearing: −
  BEHAVIOR Wholebody clonus: −
  EEG ANALYSIS Sharp waves cx: −
  EEG ANALYSIS Sharp waves hipp: −
  EEG ANALYSIS Spike-and-waves cx: −
  EEG ANALYSIS Spike-and-waves hipp: −
Rj: Wistar (Han) rats; rat, in vivo, ip, 60 mg/kg
  BEHAVIOR Facial clonus: −
  BEHAVIOR Forelimb clonus: −
  BEHAVIOR Head twitches: −
  BEHAVIOR Hyperactivity Sterotypies: +
  BEHAVIOR Rearing: −
  BEHAVIOR Wholebody clonus: −
  EEG ANALYSIS Sharp waves cx: −
  EEG ANALYSIS Sharp waves hipp: −
  EEG ANALYSIS Spike-and-waves cx: −
  EEG ANALYSIS Spike-and-waves hipp: −
Rj: Wistar (Han) rats; rat, in vivo, ip, 100 mg/kg
  BEHAVIOR Facial clonus: +
  EEG ANALYSIS Spike-and-waves cx: −
  EEG ANALYSIS Spike-and-waves hipp: −

## Br.CC(NC(C)(C)C)C(=O)c1cccc(Cl)c1 (stereo not drawn) [bupropion hydrobromide]
[2]
  In water, 852U77: order of impurity content: fumarate > HBr > maleate > HCl
  In water, Total imp.: order of impurity content: fumarate > HBr > HCl > tosylate > maleate
[2]; closed vials
  order of stability (assay, % potency): HBr>HCl≈tosylate>fumarate>maleate
[2]; [5]
  In IPA/EtOH, 3-CBZ: order of impurity content: maleate > HBr > HCl > Fumarate
  In IPA/EtOH, 852U77: order of impurity content: fumarate > HBr ≈HCl ≈maleate ≈tosylate
  In IPA/EtOH, Total imp.: order of impurity content: fumarate > maleate > HBr > HCl > tosylate
[2]; spiked with water, closed vials, 32 days
  In water, 3-CBZ: order of impurity content: HCl > HBr≈maleate≈fumarate
rat
  NUMBER OF ANIMALS WITH SEIZURE ACTIVITY: 4*
  DURATION OF INITIAL SEIZURE CORTEX mean ± s.e.m.: 31 ± 6
  DURATION OF INITIAL SEIZURE HIPPOCAMPUS mean ± s.e.m.: 23 ± 2
rat; in vivo, ip, 100 mg/kg
  dead: #dead (1/10).
[3]
  disproportionation of the salt at elevated temperatures (TGA, loss of API): did not occur
[1]; 14 and 24 days (study-1)
  resulting degradation products, HBr versus HCl: either similar or better for the HBr salt
[1]; [4]
  level of bupropion degradation impurities, HBr versus HCl: lower than bupropion HCl
Rj: Wistar (Han) rats; 60 mg/kg i.p.
  abnormal behavior: One rat in the bupropion hydrobromide group had a fatal whole body clonus immediately after administration
Rj: Wistar (Han) rats; rat, in vivo, ip, 10 mg/kg
  EEG ANALYSIS Burst cx: −
  EEG ANALYSIS Burst hipp: −
  EEG ANALYSIS Complex spike cx: −
  EEG ANALYSIS Complex spike hipp: −
  EEG ANALYSIS High amplitude fast frequency cx: −
  EEG ANALYSIS High amplitude fast frequency hipp: −
  EEG ANALYSIS High frequency burst activity cx: −
  EEG ANALYSIS High frequency burst activity hipp: −
  EEG ANALYSIS Long seizure activity cx: −
  EEG ANALYSIS Long seizure activity hipp: −
  EEG ANALYSIS Post ictual activity cx: −
  EEG ANALYSIS Post ictual activity hipp: −
  EEG ANALYSIS Repetitive isolated spike cx: −
  EEG ANALYSIS Repetitive isolated spike hipp: −
  EEG ANALYSIS Sharp waves hipp: −
  EEG ANALYSIS Short seizure activity cx: −
  EEG ANALYSIS Short seizure activity hipp: −
  EEG ANALYSIS Spike-and-waves cx: −
  EEG ANALYSIS Spike-and-waves hipp: −
Rj: Wistar (Han) rats; rat, in vivo, ip, 30 mg/kg
  EEG ANALYSIS Sharp waves cx: −
  EEG ANALYSIS Sharp waves hipp: −
  EEG ANALYSIS Spike-and-waves hipp: −
Rj: Wistar (Han) rats; rat, in vivo, ip, 60 mg/kg
  EEG ANALYSIS Sharp waves cx: −
  EEG ANALYSIS Sharp waves hipp: −
  EEG ANALYSIS Spike-and-waves cx: −
  EEG ANALYSIS Spike-and-waves hipp: −
Rj: Wistar (Han) rats; rat, in vivo, ip, 100 mg/kg
  EEG ANALYSIS Sharp waves cx: −
  EEG ANALYSIS Sharp waves hipp: −
  EEG ANALYSIS Spike-and-waves cx: −
  EEG ANALYSIS Spike-and-waves hipp: −
